For three molecules, log k, MIC and IC50 results are on record in PMC6259751, “Investigating Spectrum of Biological Activity of 4- and 5-Chloro-2-hydroxy-N-[2-(arylamino)-1-alkyl-2-oxoethyl]benzamides” (Molecules, 2011).

Series [1] in a line: Lipophilicity determination by RP-HPLC (capacity factor k / log k). It is filed as physicochemical. The settings on record: C18 column, MeOH 70% / H2O 30%, isocratic. Summed up: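 Isocratic RP-HPLC on end-capped C18 column, MeOH/H2O 70:30, 1.0 mL/min, 30 °C, UV 210 nm. Dead time from unretained KI; k = (tR − tD)/tD, log k taken as lipophilicity index on log P scale. Calculated log P/Clog P from two programs also reported.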

Series [2] concerns Mycobacterium tuberculosis MTB CNCTC My 331/88. Put plainly: In vitro antimycobacterial evaluation. It is filed as cell-based. As to conditions: IC90 value.
Series [3] concerns Mycobacterium avium MA CNCTC My 330/88. Put plainly: In vitro antimycobacterial evaluation. The class given is cell-based. As to conditions: IC90 value.
Series [4] relates to Mycobacterium kansasii MK CNCTC My 235/80. Put plainly: In vitro antimycobacterial evaluation. It is filed as cell-based. The settings on record: IC90 value.
A further series has as its system Candida tropicalis 156. Put plainly: In vitro antifungal susceptibility testing (broth microdilution). It is filed as cell-based. As to conditions: M27-A2 for yeasts, IC80 value.
Series [5] concerns Trichophyton mentagrophytes 445. Described as above. The settings on record: M38-A for moulds, IC50 value, read-out: MIC TM. The class given is cell-based.
In series [6] the test system is photosynthetic electron transport (PET) in spinach chloroplasts. In words: Inhibition of photosynthetic electron transport (PET) in spinach chloroplasts. The class given is biochemical, Spinacia oleracea L. The settings on record: DCPIP photoreduction. As for the experimental part:
Chloroplasts were prepared from spinach (Spinacia oleracea L.) according to Masarovicova and Kralova. The inhibition of photosynthetic electron transport (PET) in spinach chloroplasts was determined spectrophotometrically (Genesys 6, Thermo Scientific, USA), using an artificial electron acceptor 2,6-dichlorophenol-indophenol (DCIPP) according to Kralova et al., and the rate of photosynthetic electron transport was monitored as a photoreduction of DCPIP. The measurements were carried out in phosphate buffer (0.02 mol/L, pH 7.2) containing sucrose (0.4 mol/L), MgCl2 (0.005 mol/L) and NaCl (0.015 mol/L). The chlorophyll content was 30 mg/L in these experiments and the samples were irradiated (~100 W/m^2) from 10 cm distance with a halogen lamp (250 W) using a 4 cm water filter to prevent warming of the samples. The studied compounds were dissolved in DMSO due to their limited water solubility. […] The inhibitory efficiency of the studied compounds was expressed by IC50 values, i.e. by molar concentration of the compounds causing 50% decrease in the oxygen evolution rate relative to the untreated control.

Series [7] relates to three Mycobacteria strains. Put plainly: Antimycobacterial screening, summary statements (strain not specified). As to conditions: Mycobacterium, read-out: antitubercular / antimycobacterial activity (MIC). It is filed as cell-based, Mycobacterium sp. As to the method: The discussed amides were tested against three Mycobacteria strains. […] Activities of some benzamides, especially against M. avium and M. kansasii, considerably exceeded the activity of isoniazid (INH) used as an internal standard. The discussed compounds can be divided according to the activities against individual Mycobacteria strains, and structure-activity relationships within Group 1, Group 2 and Group 4 can be discussed.
The in vitro antimycobacterial activity of all prepared compounds was evaluated against Mycobacterium tuberculosis MTB CNCTC My 331/88 (identical with H37RV and ATCC 27294, dilution of the strain was 10^−3 μmol/L), Mycobacterium avium MA CNCTC My 330/88 (identical with ATCC 25291, dilution of the strain was 10^−5 μmol/L) and Mycobacteriumkansasii MK CNCTC My 235/80 (identical with ATCC 12478, dilution of the strain was 10^−4 μmol/L) in the Laboratory for mycobacterial diagnostics and TB, Institute of Public Health in Ostrava, Czech Republic. All strains were obtained from the Czech National Collection of Type Cultures (CNCTC). Antimycobacterial activities were determined in the Sula semisynthetic medium (Sevac, Prague, Czech Republic). […] Reading was carried out on a stand with a bottom magnifying mirror, macroscopically, with the use of magnifying glass. The growth in plates was evaluated after 14 and 21 days of the incubation. […]

Series [8] relates to Staphylococcus aureus CCM 4516/08. In words: In vitro antibacterial susceptibility testing (broth microdilution). The settings on record: read-out: MIC SA. (In broth dilution the organism is exposed to a series of concentrations in liquid medium.)
In series [9] the test system is methicilin resistant Staphylococcus aureus H 5996/08. Described as above. As to conditions: MRSA, read-out: MIC MRSA.
For series [10], the system named is Staphylococcus epidermidis H 6966/08. The description is as above. The settings on record: read-out: MIC SE.
The subject of series [11] is Enterococcus sp. J 14365/08. The description is as above. The settings on record: read-out: MIC EF.
Series [12] deals with photosynthetic electron transport (PET) in spinach chloroplasts. Set-up: method as in earlier work. The settings on record: standard ref 41; cited from earlier work.

≈ marks a conversion by molar mass, not a printed value. Where “and” joins values, the source holds several entries; their conditions need not be identical. Equal entries are not always repeated. Where two headings read alike, the source gives them in different places. Some results are limits rather than exact numbers.

What is called IC50 is the midpoint of a concentration-inhibition curve.

In series [1], `O=C(N[C@H](Cc1ccccc1)C(=O)Nc1ccc(Cl)cc1)c1cc(Cl)ccc1O` [8l, N-{(1R)-1-benzyl-2-[(4-chlorophenyl)amino]-2-oxoethyl}-5-chloro-2-hydroxybenzamide] registered a log k of 0.7329. The MIC in [2] (14h) came out at 16 µM (≈ 6.87 µg/mL); in series [2] (21h), 16 µM (≈ 6.87 µg/mL); in series [3] (14h) it was 32 µM (≈ 13.7 µg/mL); in series [3] (21h) it was 32 µM (≈ 13.7 µg/mL); in series [4] (14h), 32 µM (≈ 13.7 µg/mL); in series [4] (21h) it was 32 µM (≈ 13.7 µg/mL). The MIC with Candida tropicalis 156 (24h) was 125 µM (≈ 53.7 µg/mL); with Candida tropicalis 156 (48h), greater than 125 µM; in [5] (72h), 125 µM (≈ 53.7 µg/mL); in series [5] (120h), 125 µM (≈ 53.7 µg/mL); in series [7], 32 µM (≈ 13.7 µg/mL); in [8] (CCM4516, 24 h), greater than 125 µM. The MIC in series [8] (CCM4516, 48 h) is greater than 125 µM; in [9] (24 h), greater than 125 µM; in [9] (48 h), greater than 125 µM; in series [10] (H6966/08, 24 h), greater than 125 µM; in series [10] (H6966/08, 48 h) it was greater than 125 µM; in [11] (SP.J14365/08, 24 h), greater than 125 µM. Further, in series [11] (SP.J14365/08, 48 h), the MIC was greater than 125 µM. For the same molecule, in series [6], the IC50 is 33.7 µM.
In the case of `O=C(N[C@H](Cc1ccccc1)C(=O)Nc1ccc(Cl)cc1)c1ccc(Cl)cc1O` [9f, N-{(1R)-1-benzyl-2-[(4-chlorophenyl)amino]-2-oxoethyl}-4-chloro-2-hydroxybenzamide], the log k in series [1] came out at 0.7479. The MIC in series [2] (14h), in series [2] (21h), in series [3] (14h), in series [3] (21h), in series [4] (14h) and in series [4] (21h) was 32 µM (≈ 13.7 µg/mL) in each case. The MIC in the series on Candida tropicalis 156 (24h) is greater than 125 µM; in the series with Candida tropicalis 156 (48h), greater than 125 µM; in series [5] (72h), greater than 125 µM; in [5] (120h) it was greater than 125 µM; in [7], 32 µM (≈ 13.7 µg/mL); in series [8] (CCM4516, 24 h), greater than 500 µM. Moreover, the MIC in series [8] (CCM4516, 48 h) is greater than 500 µM; in [9] (24 h), greater than 500 µM; in [9] (48 h), greater than 500 µM; in [10] (H6966/08, 24 h) it was greater than 500 µM; in series [10] (H6966/08, 48 h), greater than 500 µM; in series [11] (SP.J14365/08, 24 h), greater than 500 µM. Besides, the MIC in series [11] (SP.J14365/08, 48 h) is greater than 500 µM. In series [6], the IC50 came to 23.5 µM.
Regarding `CN(C)C(=O)Nc1ccc(Cl)c(Cl)c1` [DCMU, 3-(3,4-dichlorophenyl)-1,1-dimethylurea], the IC50 in series [12] was ~1900 nM and 1900 nM.
